Consider 52 compounds from patent US20180110824A1, “Macrocyclic Modulators of the Ghrelin Receptor” (Ocera Therapeutics, Inc., priority 2016, published 2018).

Read-outs that look alike come from different tables or passages of the source.

The target in this assay is T1, human growth hormone secretagogue receptor (hGHS-R1a) (Homo sapiens, UniProt Q92847).
T1 construct: purchased PerkinElmer BioSignal #RBHGHSM; host or cells: HEK-293, stably transfected
Nature of the assay: Competitive radioligand binding assay (ghrelin receptor), [125I]-ghrelin displacement on GHS-R/HEK 293 membranes.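 On Binding Activity at the Human Ghrelin Receptor (Ki): symbols B 10-100 nM C 0.1-1 µM D 1-10 µM F above 1 µM G above 10 µM.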 Particulars: [125I]-ghrelin displacement. The method, then: The competitive binding assay at the human growth hormone secretagogue receptor (hGHS-R1a) was carried out analogously to assays described in the literature.
Multiscreen Harvest plates-GF/C (Millipore, #MAHFC1H60) • 4. […] Bottom seal (Millipore, #MATAH0P00) • 7. […] Binding Buffer: 25 mM Hepes (pH 7.4), 1 mM CaCl2, 5 mM MgCl2, 2.5 mM EDTA, 0.4% BSA
Competition experiments were performed in a 300 μl filtration assay format. • 1. 220 μL of membranes diluted in binding buffer • 2. 40 μL of compound diluted in binding buffer • 3.
Compounds were provided frozen on dry ice at a stock concentration of 10 mM diluted in 100% DMSO and stored at −80° C. until the day of testing. On the test day, compounds were allowed to thaw at rt O/N and then diluted in assay buffer according to the desired test concentrations. Under these conditions, the maximal final DMSO concentration in the assay was 0.1%.
Plates were sealed with TopSeal-A, vortexed gently and incubated at rt for 30 min. The reaction was arrested by filtering samples through Multiscreen Harvest plates (pre-soaked in 0.5% polyethyleneimine) using a Tomtec Harvester, washed 9 times with 500 μL of cold 50 mM Tris-HCl (pH 7.4, 4° C.), and then plates were air-dried in a fumehood 30 min. A bottom seal was applied to the plates prior to the addition of 25 μL of MicroScint-0 to each well. […] Results were expressed as counts per minute (cpm).
Data were analyzed by GraphPad Prism (GraphPad Software, San Diego, Calif.) using […] non-linear regression analysis.
where total and non-specific binding represent the cpm obtained in the absence or presence of 1 μM ghrelin, respectively.
• 1. Binding performed on membranes prepared from HEK293 expressing the transfected, cloned human ghrelin receptor (hGHS-R1a). • 2. […] Ghrelin (unlabeled, 1 μM) was used to determine non-specific binding. • 4.

Setting [1] is: Binding activity at the human ghrelin receptor, read-out: Ki.
Where [2] appears, read: GHS-R/HEK 293 membranes, class symbols, read-out: Binding Activity at the Human Ghrelin Receptor (Ki).

T1 sequence (Q92847 whole entry): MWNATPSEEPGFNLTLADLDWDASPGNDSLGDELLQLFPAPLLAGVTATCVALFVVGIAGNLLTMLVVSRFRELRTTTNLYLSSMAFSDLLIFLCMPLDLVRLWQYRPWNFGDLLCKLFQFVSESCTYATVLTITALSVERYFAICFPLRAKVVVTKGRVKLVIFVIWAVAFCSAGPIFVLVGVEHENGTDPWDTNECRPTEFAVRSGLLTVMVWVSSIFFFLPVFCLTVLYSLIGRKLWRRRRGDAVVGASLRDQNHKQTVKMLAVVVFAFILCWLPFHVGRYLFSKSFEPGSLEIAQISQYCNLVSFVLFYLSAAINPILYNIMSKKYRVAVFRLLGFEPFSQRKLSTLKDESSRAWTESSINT

In the case of `CCC[C@@H]1NCCOc2ccccc2CCCNC(=O)[C@@H](Cc2ccccc2)NC(=O)[C@@H](CCCCN)NC1=O` [compound 69], the Ki under setting [1] was greater than 10000 nM. For the compound `CCC[C@@H]1NCCOc2ccccc2CCCNC(=O)[C@@H](Cc2ccccc2)NC(=O)[C@H](CCC(=O)O)NC1=O` [compound 70], the Ki under setting [1] is greater than 10000 nM.

As to `CCC[C@@H]1NCCOc2ccccc2CCCNC(=O)[C@@H](Cc2ccccc2)NC(=O)[C@@H](CCC(=O)O)NC1=O` [compound 71], the Ki under setting [1] is greater than 10000 nM. The same measure, in the same setting: the figure for `CN1CC(=O)N[C@H](Cc2ccccc2)C(=O)NCCCc2ccccc2OCCN[C@@H](CCC(=O)O)C1=O` [compound 73] is greater than 10000 nM.

Take `CN1CC(=O)N[C@H](Cc2ccccc2)C(=O)NCCCc2ccccc2OCCN[C@@H](CO)C1=O` [compound 76]: under setting [1], the Ki is greater than 10000 nM. Same read-out and setting: as for `CCC[C@@H]1NCc2ccccc2Sc2ccccc2CNC(=O)[C@@H](Cc2ccccc2)NC(=O)CN(C)C1=O` [compound 77], the figure is 100 to 1000 nM; as for `CN1CC(=O)NC(Cc2ccccc2)C(=O)NCCCc2ccccc2OCCNCC1=O` (stereo not shown) [compound 80], greater than 10000 nM; as for `CCCC1NCCOCCNC(=O)C(Cc2ccccc2)NC(=O)CN(C)C1=O` (stereo not shown) [compound 81], greater than 10000 nM. Still for that read-out and setting: the figure for `CCCC1NCC/C=C/CCNC(=O)C(Cc2ccccc2)NC(=O)CN(C)C1=O` (stereo not shown) [compound 83] is greater than 10000 nM; for `CC(C)C[C@@H]1NCCOc2ccccc2CCCNC(=O)[C@H](C)NC(=O)C2(CCCC2)NC1=O` [compound 87] it is greater than 10000 nM. As to `CC(C)C[C@@H]1NCCOc2ccccc2CCCNC(=O)[C@H](Cc2ccc(O)cc2)NC(=O)C2(CCCC2)NC1=O` [compound 88], the Ki under setting [1] is 1000 to 10000 nM. Same read-out and setting: the figure for `CC(C)C[C@@H]1NCCOc2ccccc2CCCNC(=O)[C@H](Cc2c[nH]c3ccccc23)NC(=O)C2(CCCC2)NC1=O` [compound 89] is 1000 to 10000 nM; for `CC(C)C[C@@H]1NCCOc2ccccc2CCCNC(=O)[C@H](CCc2ccccc2)NC(=O)C2(CCCC2)NC1=O` [compound 90] it is 1000 to 10000 nM.

Turning to `CC(C)C[C@@H]1NCCOc2ccccc2CCCNC(=O)[C@H](CCCCN)NC(=O)C2(CCCC2)NC1=O` [compound 91], the Ki under setting [1] is greater than 10000 nM.

On to `CC(C)C[C@@H]1NCCOc2ccccc2CCCNC(=O)[C@H](CCC(=O)O)NC(=O)C2(CCCC2)NC1=O` [compound 92], for which, under setting [1], the inhibition constant (Ki) is greater than 10000 nM.

Take `CC(C)C[C@@H]1NCCOc2ccccc2CCCNC(=O)[C@H](Cc2ccccc2)NC(=O)C(C)(C)NC1=O` [compound 95]: the Ki under setting [1] was in the range of 1000 to 10000 nM.

In the case of `CC(C)C[C@H]1NCCOc2ccccc2CCCNC(=O)[C@H](Cc2ccccc2)NC(=O)C2(CCCC2)NC1=O` [compound 96], the inhibition constant Ki under setting [1] is greater than 10000 nM. Same read-out and setting: as for `CC(C)C[C@H]1NCCOc2ccccc2CCCNC(=O)[C@@H](Cc2ccccc2)NC(=O)C2(CCCC2)NC1=O` [compound 98], the figure is greater than 10000 nM; as for `C[C@@H]1NCCOc2ccccc2CCCNC(=O)[C@H](Cc2ccccc2)NC(=O)C2(CCCC2)NC1=O` [compound 100], 100 to 1000 nM. On the same count and under the same terms, as for `CCCC[C@@H]1NCCOc2ccccc2CCCNC(=O)[C@H](Cc2ccccc2)NC(=O)C2(CCCC2)NC1=O` [compound 101], the figure is 100 to 1000 nM; as for `O=C1NC2(CCCC2)C(=O)N[C@@H](Cc2ccccc2)C(=O)NCCCc2ccccc2OCCN[C@H]1Cc1ccccc1` [compound 102], 100 to 1000 nM.

For the compound `NCCCC[C@@H]1NCCOc2ccccc2CCCNC(=O)[C@H](Cc2ccccc2)NC(=O)C2(CCCC2)NC1=O` [compound 103], the Ki under setting [1] was greater than 10000 nM. The same measure, in the same setting: the figure for `O=C(O)CC[C@@H]1NCCOc2ccccc2CCCNC(=O)[C@H](Cc2ccccc2)NC(=O)C2(CCCC2)NC1=O` [compound 104] is greater than 10000 nM.

`O=C1NC2(CCCC2)C(=O)N[C@@H](Cc2ccccc2)C(=O)NCCCc2ccccc2OCCN[C@H]1CO` [compound 105]: under setting [1], the Ki fell in the range of 100 to 1000 nM. Same read-out and setting: as for `CC(C)C[C@@H]1NCc2ccccc2Sc2ccccc2CNC(=O)[C@H](Cc2ccccc2)NC(=O)C2(CCCC2)NC1=O` [compound 108], the figure is 1000 to 10000 nM.

On to `CC[C@@H]1NCCOc2ccccc2CCCNC(=O)[C@@H](Cc2ccccc2)NC(=O)[C@@H](C)N(C)C1=O` [compound 117], for which the inhibition constant (Ki) under setting [1] lay within 10 to 100 nM. Still for that read-out and setting: the figure for `CC(C)C[C@@H]1NCCOc2ccccc2CCCNC(=O)[C@@H](Cc2ccccc2)NC(=O)[C@@H](C)N(C)C1=O` [compound 118] is 10 to 100 nM. For `C[C@@H]1C(=O)N[C@H](Cc2ccccc2)C(=O)NCCCc2ccccc2OCCNC2(CC2)C(=O)N1C` [compound 121], the Ki under setting [1] was greater than 10000 nM.

As to `O=C1NC2(CCCC2)C(=O)N[C@@H](Cc2ccccc2)C(=O)NC/C=C/c2ccccc2OCCN[C@H]1Cc1ccc(F)cc1` [compound 125], under setting [1], the inhibition constant (Ki) was greater than 10000 nM.

Consider `COc1ccc(C[C@@H]2NCCOc3ccccc3/C=C/CNC(=O)[C@H](Cc3ccccc3)NC(=O)C3(CCCC3)NC2=O)cc1` [compound 127], for which, under setting [1], the Ki lay within 100 to 1000 nM.

Turning to `O=C1NC/C=C/c2ccccc2OCCN[C@@H](C(c2ccccc2)c2ccccc2)C(=O)NC2(CCCC2)C(=O)N[C@H]1Cc1ccccc1` [compound 129], the Ki under setting [1] was greater than 10000 nM. On the same count and under the same terms, the figure for `O=C1NC2(CCCC2)C(=O)N[C@@H](Cc2ccccc2)C(=O)NC/C=C/c2ccccc2OCCN[C@H]1Cc1cccc2ccccc12` [compound 130] is 1000 to 10000 nM. Still for that read-out and setting: as for `O=C1NC2(CCCC2)C(=O)N[C@@H](Cc2ccccc2)C(=O)NC/C=C/c2ccccc2OCCN[C@H]1Cc1ccc2ccccc2c1` [compound 131], the figure is 100 to 1000 nM; as for `O=C1NC2(CCCC2)C(=O)N[C@@H](Cc2ccccc2)C(=O)NC/C=C/c2ccccc2OCCN[C@H]1Cc1cscn1` [compound 134], 100 to 1000 nM.

As for `O=C1NC2(CCCC2)C(=O)N[C@@H](Cc2ccccc2)C(=O)NC/C=C/c2ccccc2OCCN[C@H]1Cc1cccs1` [compound 135], under setting [1], the inhibition constant Ki fell in the range of 100 to 1000 nM. Still for that read-out and setting: as for `CCC[C@@H]1NCCOc2ccccc2/C=C/CNC(=O)[C@H](Cc2ccccc2)NC(=O)C2(CCCC2)NC1=O` [compound 137], the figure is 10 to 100 nM.

For `CC(C)C1NCCOc2ccccc2/C=C/CNC(=O)C(Cc2ccccc2)NC(=O)C2(Cc3ccccc3C2)NC1=O` (stereo not shown) [compound 142], the Ki under setting [1] is 100 to 1000 nM. The same measure, in the same setting: the figure for `CC(C)C1NCCOc2ccccc2/C=C/CNC(=O)C(Cc2ccccc2)NC(=O)C2(CCSCC2)NC1=O` (stereo not shown) [compound 143] is 100 to 1000 nM; for `CC[C@H](C)[C@@H]1NCCOc2ccccc2CCCNC(=O)[C@@H](Cc2ccccc2)NC(=O)[C@@H](C(C)C)N(C)C1=O` [compound 144] it is 100 to 1000 nM; for `CC[C@@H](C)[C@@H]1C(=O)N[C@H](Cc2ccccc2)C(=O)NCCCc2ccccc2OCCN[C@@H]([C@@H](C)CC)C(=O)N1C` [compound 149] it is 1000 to 10000 nM.

With `CC(C)C[C@@H]1NCCOc2ccccc2/C=C/CNC(=O)[C@H](C(c2ccccc2)c2ccccc2)NC(=O)C2(CCCC2)NC1=O` [compound 158], the Ki under setting [2] is greater than 1000 nM. Still for that read-out and setting: the figure for `CC(C)C[C@@H]1NCCOc2ccccc2/C=C/CNC(=O)[C@H](Cc2cscn2)NC(=O)C2(CCCC2)NC1=O` [compound 163] is greater than 10000 nM; for `CC[C@H](C)[C@@H]1NCCCc2ccccc2CCNC(=O)[C@@H](Cc2ccccc2)NC(=O)[C@@H](C)N(C)C1=O` [compound 179] it is 100 to 1000 nM. Still for that read-out and setting: the figure for `CC[C@H](C)[C@@H]1NCCCCc2ccccc2CCNC(=O)[C@@H](Cc2ccccc2)NC(=O)[C@@H](C)N(C)C1=O` [compound 180] is 100 to 1000 nM; for `CC[C@H](C)[C@@H]1NCCOCC=CCNC(=O)[C@@H](Cc2ccccc2)NC(=O)[C@@H](C)N(C)C1=O` [compound 185] it is 100 to 1000 nM. Same read-out and setting: the figure for `CC[C@H](C)[C@@H]1NCCc2ccccc2C=CCNC(=O)[C@@H](Cc2ccccc2)NC(=O)[C@@H](C)N(C)C1=O` [compound 187] is 100 to 1000 nM; for `CC(C)[C@@H]1NCCOc2ccccc2/C=C/CNC(=O)[C@H](Cc2ccccc2)NC(=O)C2(CCCC2)NC1=O` [compound 200] it is 10 to 100 nM; for `CCC[C@H]1C(=O)N(C)[C@H](C)C(=O)N[C@H](Cc2ccccc2)C(=O)NCCCc2ccccc2OCCN1C(C)=O` [compound 202] it is greater than 10000 nM. Regarding `CC(=O)N1CCOc2ccccc2/C=C/CNC(=O)[C@H](Cc2ccccc2)NC(=O)C2(CCCC2)NC(=O)[C@@H]1CC(C)C` [compound 204], the Ki under setting [2] is greater than 10000 nM. Still for that read-out and setting: the figure for `CC(C)C1NCCOc2ccccc2CCCNC(=O)C(Cc2ccccc2)NC(=O)C2(CCNCC2)NC1=O` (stereo not shown) [compound 207] is greater than 10000 nM; for `O=C1NC2(CCCC2)C(=O)N[C@@H](Cc2ccccc2)C(=O)NC/C=C/c2ccccc2OCCN[C@H]1Cc1ccccn1` [compound 210] it is greater than 1000 nM; for `CC(C)[C@@H]1NCCOc2ccccc2/C=C/CNC(=O)[C@H](Cc2ccccc2)NC(=O)C2(CCNCC2)NC1=O` [compound 211] it is greater than 1000 nM.
